According to ChEMBL document CHEMBL1138397, “New C25 carbamate rifamycin derivatives are resistant to inactivation by ADP-ribosyl transferases” (2007):
≈ marks a conversion by molar mass, not a printed value.

Tests used:
[1] = test system: Escherichia coli; test: Antimicrobial activity against Arr-2 negative Escherichia coli DH5alpha bearing pCTF104P; assay type: functional
[2] = test system: Staphylococcus aureus; test: Antimicrobial activity against rifampin-sensitive Staphylococcus aureus ATCC 29213; assay type: functional
[3] = test system: Escherichia coli; test: Ratio of MIC for Arr-2 positive Escherichia coli DH5-alpha bearing pCTF104 to MIC for Arr-2 negative Escherichia coli DH5-alpha bearing pCTF104P; assay type: functional, DH5alpha
[4] = test system: Mycolicibacterium smegmatis; test: Antimicrobial activity against Arr-1 positive Mycobacterium smegmatis DSM 43756; assay type: functional
[5] = test system: Escherichia coli; test: Antimicrobial activity against Arr-2 negative Escherichia coli CGSC 5163 lpxC101 mutant bearing pCTV104P; assay type: functional
[6] = test system: Mycolicibacterium smegmatis; test: Ratio of MIC for Arr-1 positive Mycobacterium smegmatis DSM 43756 to MIC for Arr-1 negative Mycobacterium smegmatis DSM 43756Kml; assay type: functional
[7] = test system: Mycolicibacterium smegmatis; test: Antimicrobial activity against Arr-1 negative Mycobacterium smegmatis DSM 43756Kml; assay type: functional
[8] = test system: Escherichia coli; test: Antimicrobial activity against Arr-2 positive Escherichia coli CGSC 5163 lpxC101 mutant bearing pCTV104; assay type: functional
[9] = test system: Escherichia coli; test: Ratio of MIC for Arr-2 positive Escherichia coli CGSC 5163 lpxC101 mutant bearing pCTV104 to MIC for Arr-2 negative Escherichia coli CGSC 5163 lpxC101 mutant bearing pCTV104P; assay type: functional
[10] = test system: Staphylococcus aureus; test: Antimicrobial activity against rifampin-resistant Staphylococcus aureus ATCC 29213 rpoB (His481Tyr) mutant; assay type: functional
[11] = test system: Escherichia coli; test: Antimicrobial activity against Arr-2 positive Escherichia coli DH5-alpha bearing pCTF104; assay type: functional; conditions: DH5alpha

Compound	MIC [1]	MIC [2]	Ratio [3]	MIC [4]	MIC [5]	Ratio [6]	MIC [7]	MIC [8]	Ratio [9]	MIC [10]	MIC [11]
CO[C@H]1/C=C/O[C@@]2(C)Oc3c(C)c(O)c4c(c3C2=O)C(=O)C(N2CCOCC2)=C(NC(=O)/C(C)=C\C=C\[C@H](C)[C@H](O)[C@@H](C)[C@@H](O)[C@@H](C)[C@H](OC(=O)N2CCC(NCc3ccccc3)CC2)[C@@H]1C)C4=O	8 µg/mL (≈ 8.38 µM)	0.03 µg/mL (≈ 0.0314 µM)	2	0.12 µg/mL (≈ 0.126 µM)	0.24 µg/mL (≈ 0.251 µM)	1	0.12 µg/mL (≈ 0.126 µM)	0.24 µg/mL (≈ 0.251 µM)	1	> 63 µg/mL	16 µg/mL (≈ 16.8 µM)
CO[C@H]1/C=C/O[C@@]2(C)Oc3c(C)c(O)c4c(c3C2=O)C(=O)C(N2CCOCC2)=C(NC(=O)/C(C)=C\C=C\[C@H](C)[C@H](O)[C@@H](C)[C@@H](O)[C@@H](C)[C@H](OC(=O)NCCO)[C@@H]1C)C4=O	8 µg/mL (≈ 9.69 µM)	0.016 µg/mL (≈ 0.0194 µM)	>32	8 µg/mL (≈ 9.69 µM)	0.5 µg/mL (≈ 0.605 µM)	4	2 µg/mL (≈ 2.42 µM)	8 µg/mL (≈ 9.69 µM)	16	16 µg/mL (≈ 19.4 µM)	> 250 µg/mL
CO[C@H]1/C=C/O[C@@]2(C)Oc3c(C)c(O)c4c(c3C2=O)C(=O)C(N2CCOCC2)=C(NC(=O)/C(C)=C\C=C\[C@H](C)[C@H](O)[C@@H](C)[C@@H](O)[C@@H](C)[C@H](OC(=O)NCc2ccc(C(F)(F)F)cc2)[C@@H]1C)C4=O	> 250 µg/mL	0.03 µg/mL (≈ 0.0319 µM)	–	0.12 µg/mL (≈ 0.128 µM)	0.5 µg/mL (≈ 0.532 µM)	>4	≤ 0.03 µg/mL	1 µg/mL (≈ 1.06 µM)	2	–	> 250 µg/mL
COc1ccccc1-c1cc(CNC(=O)O[C@H]2[C@H](C)[C@H](O)[C@H](C)[C@@H](O)[C@@H](C)/C=C/C=C(/C)C(=O)NC3=C(N4CCOCC4)C(=O)c4c(c(O)c(C)c5c4C(=O)[C@@](C)(O/C=C/[C@H](OC)[C@H]2C)O5)C3=O)on1	> 250 µg/mL	0.06 µg/mL (≈ 0.0619 µM)	–	0.12 µg/mL (≈ 0.124 µM)	1 µg/mL (≈ 1.03 µM)	1	0.12 µg/mL (≈ 0.124 µM)	2 µg/mL (≈ 2.06 µM)	2	–	> 250 µg/mL
CNC(=O)O[C@H]1[C@H](C)[C@H](O)[C@H](C)[C@@H](O)[C@@H](C)/C=C/C=C(/C)C(=O)NC2=C(N3CCOCC3)C(=O)c3c(c(O)c(C)c4c3C(=O)[C@@](C)(O/C=C/[C@H](OC)[C@H]1C)O4)C2=O	8 µg/mL (≈ 10.1 µM)	0.004 µg/mL (≈ 0.00503 µM)	>32	4 µg/mL (≈ 5.03 µM)	0.5 µg/mL (≈ 0.628 µM)	8	0.5 µg/mL (≈ 0.628 µM)	16 µg/mL (≈ 20.1 µM)	32	4 µg/mL (≈ 5.03 µM)	> 250 µg/mL
C=CCNC(=O)O[C@H]1[C@H](C)[C@H](O)[C@H](C)[C@@H](O)[C@@H](C)/C=C/C=C(/C)C(=O)NC2=C(N3CCOCC3)C(=O)c3c(c(O)c(C)c4c3C(=O)[C@@](C)(O/C=C/[C@H](OC)[C@H]1C)O4)C2=O	8 µg/mL (≈ 9.73 µM)	0.004 µg/mL (≈ 0.00487 µM)	>32	2 µg/mL (≈ 2.43 µM)	0.24 µg/mL (≈ 0.292 µM)	>32	0.06 µg/mL (≈ 0.073 µM)	4 µg/mL (≈ 4.87 µM)	16	–	> 250 µg/mL
CO[C@H]1/C=C/O[C@@]2(C)Oc3c(C)c(O)c4c(c3C2=O)C(=O)C(N2CCOCC2)=C(NC(=O)/C(C)=C\C=C\[C@H](C)[C@H](O)[C@@H](C)[C@@H](O)[C@@H](C)[C@H](OC(=O)NCc2ccc(N(C)C)cc2)[C@@H]1C)C4=O	63 µg/mL (≈ 68.8 µM)	0.06 µg/mL (≈ 0.0656 µM)	>4	0.06 µg/mL (≈ 0.0656 µM)	1 µg/mL (≈ 1.09 µM)	1	0.06 µg/mL (≈ 0.0656 µM)	16 µg/mL (≈ 17.5 µM)	16	> 63 µg/mL	> 250 µg/mL
COc1ccc(CNC(=O)O[C@H]2[C@H](C)[C@H](O)[C@H](C)[C@@H](O)[C@@H](C)/C=C/C=C(/C)C(=O)NC3=C(N4CCOCC4)C(=O)c4c(c(O)c(C)c5c4C(=O)[C@@](C)(O/C=C/[C@H](OC)[C@H]2C)O5)C3=O)cc1	16 µg/mL (≈ 17.7 µM)	0.016 µg/mL (≈ 0.0177 µM)	>16	0.06 µg/mL (≈ 0.0665 µM)	0.5 µg/mL (≈ 0.554 µM)	2	0.03 µg/mL (≈ 0.0333 µM)	0.5 µg/mL (≈ 0.554 µM)	1	4 µg/mL (≈ 4.43 µM)	> 250 µg/mL
CO[C@H]1/C=C/O[C@@]2(C)Oc3c(C)c(O)c4c(c3C2=O)C(=O)C(N2CCOCC2)=C(NC(=O)/C(C)=C\C=C\[C@H](C)[C@H](O)[C@@H](C)[C@@H](O)[C@@H](C)[C@H](OC(=O)NCCN(C)C)[C@@H]1C)C4=O	4 µg/mL (≈ 4.69 µM)	0.006 µg/mL (≈ 0.00703 µM)	2	0.5 µg/mL (≈ 0.586 µM)	0.24 µg/mL (≈ 0.281 µM)	4	0.12 µg/mL (≈ 0.141 µM)	0.24 µg/mL (≈ 0.281 µM)	1	> 63 µg/mL	8 µg/mL (≈ 9.38 µM)
CO[C@H]1/C=C/O[C@@]2(C)Oc3c(C)c(O)c4c(c3C2=O)C(=O)C(N2CCOCC2)=C(NC(=O)/C(C)=C\C=C\[C@H](C)[C@H](O)[C@@H](C)[C@@H](O)[C@@H](C)[C@H](OC(=O)N2CCOCC2)[C@@H]1C)C4=O	31 µg/mL (≈ 36.4 µM)	0.03 µg/mL (≈ 0.0352 µM)	2	2 µg/mL (≈ 2.35 µM)	1 µg/mL (≈ 1.17 µM)	2	1 µg/mL (≈ 1.17 µM)	1 µg/mL (≈ 1.17 µM)	1	–	63 µg/mL (≈ 73.9 µM)
CO[C@H]1/C=C/O[C@@]2(C)Oc3c(C)c(O)c4c(c3C2=O)C(=O)C(N2CCOCC2)=C(NC(=O)/C(C)=C\C=C\[C@H](C)[C@H](O)[C@@H](C)[C@@H](O)[C@@H](C)[C@H](OC(=O)NCc2cc(-c3ccccn3)no2)[C@@H]1C)C4=O	4 µg/mL (≈ 4.26 µM)	0.008 µg/mL (≈ 0.00851 µM)	1	0.5 µg/mL (≈ 0.532 µM)	2 µg/mL (≈ 2.13 µM)	1	0.5 µg/mL (≈ 0.532 µM)	2 µg/mL (≈ 2.13 µM)	–	> 63 µg/mL	4 µg/mL (≈ 4.26 µM)
CO[C@H]1/C=C/O[C@@]2(C)Oc3c(C)c(O)c4c(c3C2=O)C(=O)C(N2CCOCC2)=C(NC(=O)/C(C)=C\C=C\[C@H](C)[C@H](O)[C@@H](C)[C@@H](O)[C@@H](C)[C@H](OC(=O)NCc2cccc(Cl)c2)[C@@H]1C)C4=O	> 250 µg/mL	0.008 µg/mL (≈ 0.00883 µM)	–	0.12 µg/mL (≈ 0.132 µM)	0.24 µg/mL (≈ 0.265 µM)	>4	≤ 0.03 µg/mL	0.5 µg/mL (≈ 0.552 µM)	2	> 63 µg/mL	> 250 µg/mL
CO[C@H]1/C=C/O[C@@]2(C)Oc3c(C)c(O)c4c(O)c(c(/C=N/N5CCN(C)CC5)c(O)c4c3C2=O)NC(=O)/C(C)=C\C=C\[C@H](C)[C@H](O)[C@@H](C)[C@@H](O)[C@@H](C)[C@H](OC(C)=O)[C@@H]1C [RIFAMPIN]	8 µg/mL (≈ 9.72 µM)	0.008 µg/mL (≈ 0.00972 µM)	>32	32 µg/mL (≈ 38.9 µM)	0.24 µg/mL (≈ 0.292 µM)	64	0.5 µg/mL (≈ 0.608 µM)	8 µg/mL (≈ 9.72 µM)	32	> 63 µg/mL	> 250 µg/mL
